# Assay results published in patent US11160764B2, “Drug delivery composition containing silyl polymers” (Medherant Limited, priority 2015, dated 2021).
# Columns and labels:
# [1] = Drug release analysis: permeation from patch across Pion membrane in Franz cell; conditions: patch of the invention, PBS pH 7.4
# Procedure: The membrane and patch are then placed in a Franz cell and then a PBS pH 7.4 buffer solution is added. Samples are taken at one hour interval for 8 hours. The amount of drug released is calculated using a validated HPLC/UV-Vis method depending on the drug in question.
# [2] = cited from earlier work
# [3] = Solubility of drugs in the adhesive compositions / patches
# Procedure: Three different grades of composition were employed in solubility experiments: A, B and C (see below). A is the grade which was used for initial studies and further was used as the standard grade for solubility tests.
# A sample of composition is pre-heated to 80° C. in a closed cartridge or inert environment to avoid contact with moisture and approximately 10 ml of the composition is added into a beaker and weighed. A desired quantity of drug, preservative and excipients are then added to the mixture. The mixture is mixed until it has been homogenised and is then cast with the help of a heated Meyer bar onto a release liner. Once cast, the layers of composition are cured at 60° C. in a humid environment during 16 hours.
# In all experiments benzyl alcohol (BenzOH) was employed as a co-solvent. BenzOH is widely used in both pharmaceutical and cosmetic formulations as a preservative, and therefore its addition is required to improve the shelf life of patches. […] Additionally, it acts as a solvent for drugs improving their dissolution in the polymer matrix compositions. The total amount of BenzOH in all formulations was in a range of 1-3% w/w.
# All compounds in the liquid state were added by volume, which was estimated using their specific densities.
smiles,measurement,setting,value
COC(=O)c1ccccc1O [Methyl salicylate],Permeated drug amount,[1]; sample 1 hours,18.25 μg cm^−2
same,Permeated drug amount,[1]; sample 2 hours,24.58 μg cm^−2
same,Permeated drug amount,[1]; sample 4 hours,59.78 μg cm^−2
same,Permeated drug amount,[1]; sample 6 hours,83.03 μg cm^−2
same,Solubility in water,[2],690 µg/mL
same,Sol. type,[3],Molecular
same,Solubility in adhesive F15,[3]; adhesive grade F15,✓
same,Solubility in adhesive F16,[3]; adhesive grade F16,✓
same,Solubility in adhesive F17,[3]; adhesive grade F17,✓
same,"Conc., wt %",[3]; grade A composition,>5 wt %
same,Solubility of analgesic drugs in compositions: A,[3]; grade A composition,✓
same,Max. mass fraction,[3]; grade A composition (Table 5),30%
same,Soluble in A,[3]; grade A composition (Table 5),✓
same,"Conc., wt %",[3]; grade B composition,>5 wt %
same,Solubility of analgesic drugs in compositions: B,[3]; grade B composition,✓
same,Drug solubility compared between all three grades,"[3]; grades A, B and C",identical
same,"Solubility in the standard grade (A) composition, in words",[3]; standard grade (A),readily soluble
